Test results taken from patent US4321260A, “Method of using gonadorelin for the treatment of benign prostatic hyperplasia” (Ayerst, McKenna & Harrison Inc., priority 1980, dated 1982).
“Also recorded” adds a separate entry of the source.

Experiments:
seminal vesicles = test: 3-week daily s.c. treatment of male rats, weight of the seminal vesicles; type: in vivo, Sprague-Dawley rats; settings: for weight of the seminal vesicles (wet weight): male rats
Description: (§1) Adult male Sprague-Dawley rats weighing 275-325 g upon arrival were obtained from Canadian Breeding Laboratories, St. Constant, Quebec, Canada. All animals were housed 2 per cage in an air-conditioned (21±1° C.; 45-50% humidity) and light (12 hours light, 12 hours darkness)-controlled room and given food and water ad libitum. […] Rats were killed by decapitation 24 hours after the last injection. The testes, seminal vesicles and ventral prostate were removed, chilled, weighed and kept frozen at -20° C. until use.

ventral prostate = test: 3-week daily s.c. treatment of male rats, weight of the ventral prostate; type: in vivo, Sprague-Dawley rats; settings: for weight of the ventral prostate (wet weight): male rats
Description: as §1

testes = settings: in vivo; cited from earlier work
[1] = 25μg s.c. daily, 1 week of treatment
[2] = 25μg s.c. daily, 2 weeks of treatment
[3] = 25μg s.c. daily, 3 weeks of treatment
[4] = 250μg s.c. daily, 1 week of treatment
[5] = 250μg s.c. daily, 2 weeks of treatment
[6] = 250μg s.c. daily, 3 weeks of treatment
[7] = 2500μg s.c. daily, 1 week of treatment
[8] = 2500μg s.c. daily, 2 weeks of treatment
[9] = 2500μg s.c. daily, 3 weeks of treatment
[10] = daily subcutaneous administration to male rats up to three weeks, listed as gonadorelin

For CC(C)C[C@H](NC(=O)CNC(=O)[C@H](Cc1ccc(O)cc1)NC(=O)[C@H](CO)NC(=O)[C@H](Cc1c[nH]c2ccccc12)NC(=O)[C@H](Cc1cnc[nH]1)NC(=O)[C@@H]1CCC(=O)N1)C(=O)N[C@@H](CCCNC(=N)N)C(=O)N1CCC[C@H]1C(=O)NCC(N)=O [LH-RH, Pyr-His-Trp-Ser-Tyr-Gly-Leu-Arg-Pro-Gly-NH2], the “weight of the seminal vesicles (wet weight)” value (from here on “weight of the seminal vesicles”) (seminal vesicles; [1]) was 281 ± 14 mg, the “weight of the seminal vesicles” value (seminal vesicles; [2]) was 247 ± 9 mg and the “weight of the seminal vesicles” value (seminal vesicles; [3]) was 260 ± 13 mg. For the same molecule, the “weight of the seminal vesicles” value (seminal vesicles; [4]) was 298 ± 10 mg, the “weight of the seminal vesicles” value (seminal vesicles; [5]) was 249 ± 18 mg and the “weight of the seminal vesicles” value (seminal vesicles; [6]) was 210 ± 8 mg. The “weight of the seminal vesicles” value (seminal vesicles; [7]) was 265 ± 10 mg, the “weight of the seminal vesicles” value (seminal vesicles; [8]) was 236 ± 13 mg and the “weight of the seminal vesicles” value (seminal vesicles; [9]) was 225 ± 9 mg. For the same molecule, the “effect on the weight of seminal vesicles (in words)” value (seminal vesicles; [10]) was “significant decrease; also recorded: significantly decreases”, the “weight of the ventral prostate (wet weight)” value (“weight of the ventral prostate” for short) (ventral prostate; [1]) was 359 ± 23 mg and the “weight of the ventral prostate” value (ventral prostate; [2]) was 415 ± 31 mg. The “weight of the ventral prostate” value (ventral prostate; [3]) was 378 ± 13 mg, the “weight of the ventral prostate” value (ventral prostate; [4]) was 360 ± 26 mg and the “weight of the ventral prostate” value (ventral prostate; [5]) was 380 ± 38 mg. The “weight of the ventral prostate” value (ventral prostate; [6]) was 370 ± 25 mg, the “weight of the ventral prostate” value (ventral prostate; [7]) was 325 ± 12 mg and the “weight of the ventral prostate” value (ventral prostate; [8]) was 355 ± 31 mg. For the same molecule, the “weight of the ventral prostate” value (ventral prostate; [9]) was 373 ± 18 mg and the “effect on ventral prostate weight (in words)” value (ventral prostate; [10]) was “significant decrease; also recorded: significantly decreases”.

In the case of “[D-Ala^6, des-Gly-NH2^10 ]-LH-RH ethylamide”, the “selective effect (decrease of seminal vesicle and ventral prostate weight while not affecting testicular weight)” value (testes) is listed as “do not show such a selectivity”.

For “[D-Leu^6,des-Gly-NH2^10 ]-LH-RH ethylamide”, the “selective effect (decrease of seminal vesicle and ventral prostate weight while not affecting testicular weight)” value (testes) is given as “do not show such a selectivity”.
